According to ChEMBL document CHEMBL1149256, “Discovery of 4-aryl-4H-chromenes as a new series of apoptosis inducers using a cell- and caspase-based high-throughput screening assay. 1. Structure-activity relationships of the 4-aryl group” (J Med Chem, 2004):
Activity calls are given as the source filed them. The calls are words filed in the database; no cut-off is given here.

What was measured:
T47D [1] = test: Induction of apoptosis in human T47D cells assessed as caspase activation after 24 hrs; type: functional, cell-based
NCI-H1299 = test: Induction of apoptosis in human H1299 cells assessed as caspase activation after 24 hrs; type: functional, cell-based; conditions: NCI-H1299, 24 h
DLD-1 [2] = test: Induction of apoptosis in human DLD1 cells assessed as caspase activation after 24 hrs; type: functional, cell-based; conditions: DLD-1, 24 h
Jurkat [3] = test: Induction of caspase-mediated apoptosis in Jurkat cells at 0.1 uM after 24 hrs by nuclear fragmentation assay; type: functional, cell-based; conditions: Homo sapiens
Jurkat [4] = test: Induction of apoptosis in Jurkat cells assessed as PARP cleavage at 2.5 uM; type: functional, cell-based; conditions: Homo sapiens, TDE = time-dependent effect
T47D [5] = test: Induction of apoptosis in human T47D cells assessed as accumulation at subG1 phase at 0.1 uM after 24 hrs; type: functional
T47D [6] = test: Induction of apoptosis in human T47D cells assessed as accumulation at G1 phase at 0.1 uM after 24 hrs; type: functional
T47D [7] = test: Induction of apoptosis in human T47D cells assessed as accumulation at S phase at 0.1 uM after 24 hrs; type: functional
T47D [8] = test: Induction of apoptosis in human T47D cells assessed as accumulation at G2/M phase at 0.1 uM after 24 hrs; type: functional
T47D [9] = test: Induction of apoptosis in human T47D cells assessed as accumulation at subG1 phase at 0.1 uM after 48 hrs; type: functional
T47D [10] = test: Induction of apoptosis in human T47D cells assessed as accumulation at G1 phase at 0.1 uM after 48 hrs; type: functional
T47D [11] = test: Induction of apoptosis in human T47D cells assessed as accumulation at S phase at 0.1 uM after 48 hrs; type: functional
T47D [12] = test: Induction of apoptosis in human T47D cells assessed as accumulation at G2/M phase at 0.1 uM after 48 hrs; type: functional
Tubulin [13] = test: Inhibition of tubulin polymerization; type: protein-complex assay, Homo sapiens
T47D [14] = test: Antiproliferative activity against human T47D cells after 48 hrs by MTT assay; type: functional
DLD-1 [15] = test: Antiproliferative activity against human DLD1 cells after 48 hrs by MTT assay; type: functional; conditions: DLD-1, 48 h
T47D [16] = test: Ratio of GI50 for human T47D cells to EC50 for human T47D cells; type: functional
DLD-1 [17] = test: Ratio of GI50 for human DLD1 cells to EC50 for human DLD1 cells; type: functional
Tubulin [18] = test: Displacement of [3H]colchicine from tubulin; type: protein-complex assay, Homo sapiens
Jurkat [19] = test: Induction of apoptosis in Jurkat cells assessed as PARP cleavage at 1 uM after 30 hrs; type: functional, cell-based; conditions: Homo sapiens

| SMILES | EC50 (T47D [1]) [nM] | EC50 (NCI-H1299) [nM] | EC50 (DLD-1 [2]) [nM] | other results |
| --- | --- | --- | --- | --- |
| CN(C)c1ccc2c(c1)OC(N)=C(C#N)C2c1ccncc1 (centres undefined) | 381 | 855 | 780 |  |
| COc1cc(C2C(C#N)=C(N)Oc3cc(N(C)C)ccc32)cc2c1OCO2 (centres undefined) |  |  | 83 | Activity (Jurkat [3]): Active; Activity (Jurkat [4]): tde; Activity (T47D [5]): 4.3%; Activity (T47D [6]): 43.5%; Activity (T47D [7]): 7.6%; Activity (T47D [8]): 44%; Activity (T47D [9]): 12%; Activity (T47D [10]): 11%; Activity (T47D [11]): 18.8%; Activity (T47D [12]): 57%; IC50 (Tubulin [13]): 400 nM |
| CN(C)c1ccc2c(c1)OC(N)=C(C#N)C2c1cccc(C(=O)O)c1 (centres undefined) | > 10000 | > 10000 | > 10000 |  |
| COc1cccc(C2C(C#N)=C(N)Oc3cc(N(C)C)ccc32)c1OC (centres undefined) | 1020 | 2130 | 1270 |  |
| COc1cc(Br)cc(C2C(C#N)=C(N)Oc3cc(N(C)C)ccc32)c1 (centres undefined) | 31 | 63 | 125 |  |
| CN(C)c1ccc2c(c1)OC(N)=C(C#N)C2c1cc(Br)c2c(c1)OCO2 (centres undefined) | 245 | 754 | 293 | GI50 (T47D [14]): 605 nM; GI50 (DLD-1 [15]): 735 nM; Ratio GI50/EC50 (T47D [16]): 2.5; Ratio GI50/EC50 (DLD-1 [17]): 2.5 |
| COc1cc(C2(C)C(C#N)=C(N)Oc3cc(N(C)C)ccc32)cc(Br)c1OC (centres undefined) | 7300 | 7800 | 10400 |  |
| CN(C)c1ccc2c(c1)OC(N)=C(C#N)C2c1cccc(F)c1 (centres undefined) | 81 | 304 | 129 |  |
| CN(C)c1ccc2c(c1)OC(N)=C(C#N)C2c1cncc(Br)c1 (centres undefined) | 33 | 46 | 26 |  |
| CN(C)c1ccc2c(c1)OC(N)=C(C#N)C2c1cc(Br)cs1 (centres undefined) | 150 | 240 | 160 |  |
| CN(C)c1ccc2c(c1)OC(N)=C(C#N)C2CCc1ccccc1 (centres undefined) | 430 | 1080 | 590 |  |
| CN(C)c1ccc2c(c1)OC(N)=C(C#N)C2c1cccc(Br)c1 (centres undefined) | 64 | 337 | 87 |  |
| CN(C)c1ccc2c(c1)OC(N)=C(C#N)C2c1cccc(C#N)c1 (centres undefined) | 63 | 215 | 82 |  |
| COc1cc(C2C(C#N)=C(N)Oc3cc(N(C)C)ccc32)cc(Br)c1O (centres undefined) | 41 | 144 | 64 |  |
| Cc1cncc(C2C(C#N)=C(N)Oc3cc(N(C)C)ccc32)c1 (centres undefined) | 11 | 27 | 18 |  |
| COc1cc(OC)c(C2C(C#N)=C(N)Oc3cc(N(C)C)ccc32)cc1OC (centres undefined) | 1770 | 2290 | 3240 |  |
| COc1ccc(C2C(C#N)=C(N)Oc3cc(N(C)C)ccc32)cc1OC (centres undefined) | 253 | 510 | 347 |  |
| Cc1cccc(C2C(C#N)=C(N)Oc3cc(N(C)C)ccc32)c1 (centres undefined) | 134 | 420 | 168 |  |
| COc1cccc(C2C(C#N)=C(N)Oc3cc(N(C)C)ccc32)c1 (centres undefined) | 65 | 200 | 81 |  |
| COc1cc(C2C(C#N)=C(N)Oc3cc(N(C)C)ccc32)cc(I)c1OC (centres undefined) | 18 | 34 | 64 |  |

| SMILES | EC50 (T47D [1]) [nM] | EC50 (NCI-H1299) [nM] | EC50 (DLD-1 [2]) [nM] | other results |
| --- | --- | --- | --- | --- |
| COc1ccc(C2C(C#N)=C(N)Oc3cc(N(C)C)ccc32)cc1 (centres undefined) | 1600 | 2000 | 2600 |  |
| CN(C)c1ccc2c(c1)OC(N)=C(C#N)C2c1cccc(Cl)c1 (centres undefined) | 112 | 514 | 158 |  |
| Cc1cccc(C2C(C#N)=C(N)Oc3cc(N(C)C)ccc32)n1 (centres undefined) | 244 | 622 | 438 |  |
| COc1ccc(C2C(C#N)=C(N)Oc3cc(N(C)C)ccc32)c(OC)c1OC (centres undefined) | 3160 | 3740 | 5090 |  |
| CN(C)c1ccc2c(c1)OC(N)=C(C#N)C2c1cnc2ccccc2c1 (centres undefined) | 1820 | 2230 | 2740 |  |
| CN(C)c1ccc2c(c1)OC(N)=C(C#N)C2c1ccccn1 (centres undefined) | 465 | 1430 | 959 |  |
| CN(C)c1ccc2c(c1)OC(N)=C(C#N)C2c1cccnc1 (centres undefined) | 68 | 155 | 123 |  |
| COc1ccccc1C1C(C#N)=C(N)Oc2cc(N(C)C)ccc21 (centres undefined) | 280 | 560 | 330 |  |
| COc1cc2c(c(OC)c1OC)-c1ccc(OC)c(=O)cc1[C@@H](NC(C)=O)CC2 [COLCHICINE] |  | 34 |  |  |
| COc1cc(C2C(C#N)=C(N)Oc3cc(N(C)C)ccc32)cc(Cl)c1OC (centres undefined) | 18 | 36 | 65 |  |
| COc1cc(C2C(C#N)=C(N)Oc3cc(N(C)C)ccc32)cc(Br)c1OC (centres undefined) |  |  |  | IC50 (Tubulin [18]): 8000 nM |
| CC(=O)O[C@H]1C(=O)[C@@]2(C)[C@H]([C@H](OC(=O)c3ccccc3)[C@]3(O)C[C@H](OC(=O)[C@H](O)[C@@H](NC(=O)c4ccccc4)c4ccccc4)C(C)=C1C3(C)C)[C@]1(OC(C)=O)CO[C@@H]1C[C@@H]2O [PACLITAXEL] | 30 | 163 | 75 |  |
| CC[C@]1(O)C[C@@H]2CN(CCc3c([nH]c4ccccc34)[C@@](C(=O)OC)(c3cc4c(cc3OC)N(C)[C@H]3[C@@](O)(C(=O)OC)[C@H](OC(C)=O)[C@]5(CC)C=CCN6CC[C@]43[C@@H]65)C2)C1 [VINBLASTINE] | 25 | 73 | 129 |  |
| CN(C)c1ccc2c(c1)OC(N)=C(C#N)C2c1cccc(OC(F)(F)F)c1 (centres undefined) | 450 | 1140 | 457 |  |
| CN(C)c1ccc2c(c1)OC(N)=C(C#N)C2c1cccs1 (centres undefined) | 200 | 300 | 270 |  |
| CN(C)c1ccc2c(c1)OC(N)=C(C#N)C2c1cccc(O)c1 (centres undefined) | 272 | 959 | 532 |  |
| CCCCCCCCCCCCOc1cccc(C2C(C#N)=C(N)Oc3cc(N(C)C)ccc32)c1 (centres undefined) | > 10000 | > 10000 | > 10000 |  |
| CN(C)c1ccc2c(c1)OC(N)=C(C#N)C2c1cc(Cl)cc(Cl)c1 (centres undefined) | 76 | 233 | 242 |  |
| CN[C@@H]1C[C@H]2O[C@@](C)([C@@H]1OC)n1c3ccccc3c3c4c(c5c6ccccc6n2c5c31)C(=O)NC4 |  |  |  | Activity (Jurkat [19]): Active |
